Assay results: US5380715A, “Ap4 A as a hypotensive agent” (Fujirebio Inc., priority 1992, dated 1995)
“Also recorded” adds a separate entry of the source.

How the values were obtained:
[1] = tested on: dogs; test: Gradual hypotension during anesthesia in dogs (hemodynamics, blood gas); assay type: in vivo, mongrel dogs; settings: dog
Protocol: Dogs were anesthetized with enflurane. […] The mean blood pressure (B.P.), heart rate (H.R.), cardiac output (C.O.), arterial oxygen tension (PaO2), mixed venos oxygen tension (PvO2), arterial carbonate tension (PaCO2), mixed venous carbonate tension (PvCO2), arterial pH (pH-a), mixed venous pH (pH-v), and base excess thereof were measured.
Mongrel dogs weighing 9 to 17 kg were anesthetized with intravenous thiopental 20 mg/kg by bolus injection, followed by 1% enflurane in 40% O2 /N2 after endotracheal intubation. […] Bilateral femoral arteries were catheterized, one for the determination of blood pressure and the other for blood sampling.
Access to the bilateral femoral veins was obtained for the administration of Ap4A, PG E1 or nitroglycerin and for the insertion of a ballon-tipped thermodilution catheter. The electrocardiogram was continuously monitored. The control values were obtained before the administration of each of the above-mentioned three agents. Each agent was administered using a syringe pump at titrated doses to produce gradual 20%, 40%, 50%, 60%, and 80% decreases in the mean arterial pressure (MAP) from the control value.
After the target blood pressure and stable hemodynamic conditions were reached, the following parameters were measured: heart rate (HR), mean pulmonary artery pressure (PAM), pulmonary capillary wedge pressure (PCWP), and central venous pressure (CVP). Cardiac output (CO) was determined by the thermodilution method. Gas analyses of arterial and mixed venous bloods were performed using a blood gas analyzer.

[2] = tested on: rats; test: Gradual hypotension during anesthesia in rats; assay type: in vivo, male SD rats; settings: rat, enflurane
Protocol: Male SD rats (Charles River Japan Inc.) were anesthetized with intravenous thiopental 50 mg/kg as a bolus, followed by 1% enflurane in air.
A femoral artery was catheterized to monitor the blood pressure and heart rate, while a femoral vein was catheterized for the administration of each of the test drugs.
(§1) The control values were obtained before the administration of each test drug. Each test drug was then administered using a syringe in a dose-dependent manner for 15 minutes. The percentage (%) of the decrease of blood pressure was determined when stabilized. Changes in heart rate (H.R.) at the administration of each test drug were measured. Furthermore,the recovery of mean blood pressure after intravenous infusion of each test drug was also determined from the decrease in heart rate and the blood pressure at a maximum dose of each test drug.

[3] = tested on: rats; test: Recovery of blood pressure after gradual hypotension in rats; assay type: in vivo, male SD rats; settings: rat
Protocol: FIG. 1 is a graph showing the recovery of the blood pressure of rats anesthetized with enflurane with time, when each of Ap4A ( ), PG E1 ( ) and nitroglycerin ( ) was used as a test drug to attain gradual hypotension, with the blood pressure before the administration of each test drug being set 100% for reference.
The recovery of blood pressure after gradual hypotension by use of each of Ap4A, PG E1 and nitroglycerin was also tested.
as §1
In a test similar to the above, each of Ap4A, PG E1, and nitroglycerin was administered to rats, so that about 65% fall in blood pressure, about 55% fall in blood pressure, and about 35% fall in blood pressure were stepwise attained. With respect to each agent, the recovery of blood pressure was tested.

[4] = words; cited from earlier work
[5] = enflurane, at -20% blood pressure

In the case of `O=[N+]([O-])OCC(CO[N+](=O)[O-])O[N+](=O)[O-]` [nitroglycerin, reference compound], the “fall in blood pressure attainable” value ([1]; enflurane) is reported as roughly 30%, the “Arterial Carbonate Tension PaCO2” value [1, 5] is reported as 36.4 ± 1.6 mmHg and the “Arterial Oxygen Tension PaO2” value [1, 5] is reported as 229.9 ± 2.7 mmHg. The “Arterial pH (pH-a)” value [1, 5] was 7.315 ± 0.020, the “Body Temperature BT” value [1, 5] was 38.6 ± 0.3 °C and the “Cardiac Output C.O.” value [1, 5] was 1.58 ± 0.21 L/min. The “Central Venous Pressure CVP” value [1, 5] was 2.32 ± 0.75 mmHg, the Dose [1, 5] was 42.2 ± 2.0 µg/kg/min and the “Heart Rate H.R.” value [1, 5] was 191.7 ± 7.5 beats/min. The “Hematocrit Value Hct” value [1, 5] was 42.2 ± 2.0%, the “Mean Blood Pressure B.P. (mean)” value [1, 5] was 101.0 ± 1.5 and the “Mean Blood Pressure B.P. (Δ%)” value [1, 5] was -18.7 ± 0.9%. For the same compound, the “Mixed Venous Carbonate Tension PvCO2” value [1, 5] was 39.6 ± 1.6 mmHg, the “Mixed Venous Oxygen Tension PvO2” value [1, 5] was 46.5 ± 2.7 mmHg and the “Mixed Venous pH (pH-v)” value [1, 5] was 7.300 ± 0.014. The “Pulmonary Artery Pressure PAM” value [1, 5] was 12.8 ± 1.0 mmHg, the “Pulmonary Capillary Wedge Pressure PCWP” value [1, 5] was 8.0 ± 0.6 mmHg and the “effect on arterial pH / venous pH” value ([1]; result in words) was “significantly decrease arterial pH or have a tendency to decrease arterial pH”. For the same compound, the “effect on heart rate” value ([1]; result in words) was “tendency to increase the heart rate when a 20% fall in blood pressure is attained”, the “effect on oxygen tension” value ([1]; result in words) was “decreases PaO2” and the “Blood Pressure (Δ%)” value ([2]; infusion 0.03 μg/kg/min) was 0%. For the same compound, the “Heart Rate (Δ%)” value ([2]; infusion 0.03 μg/kg/min) was 0%, the “Blood Pressure (Δ%)” value ([2]; infusion 0.1 μg/kg/min) was 0% and the “Heart Rate (Δ%)” value ([2]; infusion 0.1 μg/kg/min) was 0%. For the same compound, the “Blood Pressure (Δ%)” value ([2]; infusion 0.3 μg/kg/min) was -1.0 ± 1.0%, the “Heart Rate (Δ%)” value ([2]; infusion 0.3 μg/kg/min) was -0.3 ± 0.5% and the “Blood Pressure (Δ%)” value ([2]; infusion 1 μg/kg/min) was -7.5 ± 3.2%. For the same compound, the “Heart Rate (Δ%)” value ([2]; infusion 1 μg/kg/min) was -1.5 ± 1.1%, the “Blood Pressure (Δ%)” value ([2]; infusion 3 μg/kg/min) was -16.4 ± 4.4% and the “Heart Rate (Δ%)” value ([2]; infusion 3 μg/kg/min) was -6.5 ± 2.3%. For the same compound, the “Blood Pressure (Δ%)” value ([2]; infusion 10 μg/kg/min) was -24.7 ± 4.4%, the “Heart Rate (Δ%)” value ([2]; infusion 10 μg/kg/min) was -13.9 ± 4.0% and the “Blood Pressure (Δ%)” value ([2]; infusion 30 μg/kg/min) was -27.6 ± 5.2%. The “Heart Rate (Δ%)” value ([2]; infusion 30 μg/kg/min) was -13.8 ± 4.7%, the “recovered blood pressure (before administration = 100%), plateau” value ([3]; plateau) was “about 85%” and the “fall in blood pressure attained before recovery” value ([3]; stepwise) was “about 35%”. The “rapidness of the recovery of blood pressure” value ([3]; order in words) was “Ap4A>PG E1 >nitroglycerin” and the “shortcomings / adverse effects” value [4] was “congestion by the expansion of vanation, and tachycardia are caused; also recorded: sthenia of brain pressure is caused; also recorded: the arterial oxygen tension (PaO2) is decreased during hypotensive anesthesia”.
